From patent US20160030409A1, “METHOD FOR RELIEVING CHRONIC PAIN” (priority 2014, published 2016) come the findings set out here.

The subject of the series is chronic non-malignant pain due to fibromyalgia and osteoarthritis. Put plainly: Trial experiment: Naropin injected into tender points of a patient with chronic non-malignant pain. The series is classed as in vivo. Here is the method:
The patient was treated with the anesthetic Naropin® (generically known as ropivacaine), by injecting 0.5 cc of the anesthetic, by needle, into most tender points above and below the knees. Naropin was administered at a concentration of 5 mg/ml.
Subsequently, after sufficient time had elapsed for the previously injected Naropin to leave the patient's body, 0.5 cc of Naropin was once again administered, at a concentration of 5 mg/ml, using the Medical International Technology, Inc. (MIT) Med-Jet® H™ needleless, pressure-based injector. The injector was set at a pressure of 150 psig. For knee pain, most tender points, approximately five to eight, above and below the knees were injected. For hip pain, most tender points, approximately five, above the trochanteric bursa were injected. For back pain, most tender points, approximately ten on each side of the back, around the sacroiliac joints were injected. A single injection was administered for each tender point selected for injection. The administration of the local anesthetic by needleless injection left painful welts at each injection site, which took approximately two to three weeks to disappear.

Structures are written as SMILES.

Regarding `CCCN1CCCC[C@H]1C(=O)Nc1c(C)cccc1C` [Naropin, ropivacaine], the “tenderness of tender points after the welts had disappeared” value (0.5 cc at 5 mg/ml by Med-Jet H needleless pressure-based injector at 150 psig) is “no longer tender”. Also, under “0.5 cc at 5 mg/ml by Med-Jet H needleless pressure-based injector at 150 psig, tender points of knees, hip, back”, the “pain after the welts had disappeared” value is “pain was diminished”. Further, the pain relief entry (0.5 cc at 5 mg/ml injected by needle into most tender points above and below the knees, middle-aged patient) is listed as “No pain relief”. For the same molecule, the “time for welts to disappear” value (needleless injection, 150 psig) is given as “two to three”. Moreover, the injection site reaction entry (needleless injection, 150 psig, each injection site) is recorded as “painful welts”.
